Results from US9795580B2, “Ketone supplements for treatment of angelman syndrome” (priority 2015, dated 2017).
Entries after “also recorded” stand apart in the source; their conditions may differ.

Legend:
[1] = Chronic feeding of ketone supplements: weight and caloric intake; format: in vivo, Sprague Dawley rats; details: for Approximate caloric intake compared to controls: rats, following adaptation to diet (weeks 13-15)
Source text: (§1) Male Sprague Dawley rats (N=10/group) were fed ad libitum (approximate dose based on food intake recorded during study) for the study duration (15 weeks).
(§2) Measured Parameters: • Weight • Food/calorie intake • Blood glucose • Blood ketones • Triglycerides • Total Cholesterol • HDL • LDL • Safety/toxicity—serum clinical chemistry tests for kidney and liver function Inflammatory Profile: […]

[2] = system: kidney and liver function; experiment: Chronic feeding of ketone supplements: serum clinical chemistry for kidney and liver function; format: in vivo, Sprague Dawley rats; set-up: key: ns = no change from control; details: rat serum, 15 weeks, vs SD-fed control
Source text: as §1, §2

[3] = system: serum cytokines/chemokines; experiment: Chronic feeding of ketone supplements: serum inflammatory profile; format: in vivo, Sprague Dawley rats; set-up: key to MIP-1a, change from control / IL-4, change from control / IL-1b, change from control / IL-2, change from control / IL-10, change from control / IFNy, change from control / IL-5, change from control / IL-17a, change from control / IL-18, change from control / MCP-1, change from control / IP-10, change from control / GRO/KC, change from control / VEGF, change from control / LIX, change from control / MIP-2, change from control / TNF-a, change from control / RANTES, change from control / G-CSF, change from control / GM-CSF, change from control / IL-1a, change from control / Leptin, change from control: ↑: Increased from control; ↓: Decreased from control; —: no change; T: Trend towards significance; *p < 0.05; **p < 0.01; ***p < 0.001; details: rat serum, 15 weeks
Source text: as §1, §2

[4] = Group weights of AS mice on ketone ester diet; format: in vivo; details: 10% BD-AcAc2 in chow ad libitum, 8 weeks, vs AS controls
Procedure: (§3) Mice. Mice with the UBE3A null mutation (AS) were described previously (Jiang Y H et al., Neuron, 1998, 21(4):799-811). All experiments were performed on mice that have been backcrossed to the C57BL/6 line (Jackson Labs, Bar Harbor, Me.) for at least 5 generations. Female C57BL/6 mice containing the null mutation were bred with C57BL/6 (WT) males to produce maternally-deficient AS offspring and WT littermate controls. Audiogenic seizure experiments were performed on mice with the 129/SvEv background, with the same breeding scheme as the C57BL/6 mice. Animals were kept on a 12 hour light-dark cycle and food and water provided ad libitum. All animal testing procedures were approved by the Institutional Animal Care and Use Committee of the University of South Florida and followed the NIH guidelines for the care and use of laboratory animals.
(§4) Ketone ester administration. Control mice received standard rodent chow fed ad libitum. Mice receiving the ketone supplement were administered BD-AcAc2 with their standard rodent chow ad libitum.
(§5) The inventors hypothesized that supplemental ketone administration would decrease seizure frequency, increase seizure threshold, and improve hippocampal-dependent cognition and motor learning deficiencies.

Ube3a-deficient mice [5] = experiment: Induced audiogenic seizures; format: in vivo; details: for latency to seize: AS treated vs AS control mice, audiogenic seizures
Procedure: as §3, §4
Induced audiogenic seizures. Seizures were induced by exposing mice to a 120-dB white noise in a sound-attenuated chamber until seizures occurred or for a maximum of 60 s. Both seizure frequency and threshold (time until seizures began) were recorded.

Ube3a-deficient mice [6] = experiment: Novel object recognition; format: in vivo; details: AS mice, 24 hours following training
Procedure: as §3, §4
Novel Object Recognition. Novel object recognition was used to evaluate recognition memory. Following habituation to an open field arena, mice were allowed to explore the arena containing two identical objects for 15 minutes. 24 hours following training, a novel object replaced one of the old objects and mice were allowed to explore for 5 minutes.

[7] = Blood glucose and ketone levels in AS mice; format: in vivo; details: for blood ketones: AS mice on KE diet vs WT and AS controls; for blood glucose: AS mice on KE diet vs WT and AS mice on control diet
Procedure: as §4
Blood glucose and ketone levels. Blood was collected from the tip of the tail weekly using the Precision Xtra system with both glucose and ketone test strips, each requiring 0.6 μL samples.
as §5

Ube3a-deficient mice [8] = experiment: Kainic acid-induced seizures; format: in vivo; details: kainic acid 20 mg/kg i.p.; 10 and 45 minutes post-administration; AS treated vs AS control
Procedure: as §3, §4
Kainic acid injections. Mice were injected with 20 mg/kg of kainic acid i.p. and were monitored for seizure activity for 45 minutes and behavioral seizure score was recorded (modified Racine's scale).

Ube3a-deficient mice [9] = experiment: Associative fear conditioning; format: in vivo; details: AS mice
Procedure: as §3, §4
Associative fear conditioning. Fear conditioning was used to assess hippocampal function and associative learning and memory. Training included 2 shock-tone (CS/US) pairings. Detailed methods have been previously described (Trotter, J. et al., The Journal of Neuroscience, 2013, 33(39):[…]). […]

Ube3a-deficient mice [10] = experiment: Rotarod testing; format: in vivo; details: AS mice, treated vs AS littermate controls
Procedure: as §3, §4
Rotarod testing. Mice were placed on a rotating rod (Rotarod, Ugo Basile, Italy) that accelerated from 4 to 40 rpm. For two consecutive days, four trials were performed per day with a 45-60 min interval between trials. The maximum duration of each trial was 5 minutes. The time that the mice fell off the rod was recorded. […]

[11] = listed as ketone ester supplement

## CC(=O)CC(=O)OCCC(C)OC(=O)CC(C)=O (racemic) [LKE]
[1]
  Approximate caloric intake compared to controls: ~+10 % kcal
[2]
  Alanine Aminotransferase (ALT): ns
  Albumin: ns
  Alkaline Phosphatase (ALP): ns
  Blood Urea Nitrogen (BUN): ns
  Calcium: ns
  Chloride: ns
  Cholesterol: ns
  Creatinine: ns
  Gamma Glutamyltransferase (GGT): ns
  Globulin: ns
  Glucose: ns
  Phosphorous: ns
  Potassium: ns
  Sodium: ns
  Total Bilirubin: ns
  Total Protein: ns
[3]
  Eotaxin, change from control: ↓T
  Fractalkine, change from control: ↑**
  G-CSF, change from control: —
  GM-CSF, change from control: —
  GRO/KC, change from control: —
  IFNy, change from control: —
  IL-1a, change from control: —
  IL-1b, change from control: —
  IL-2, change from control: —
  IL-4, change from control: —
  IL-5, change from control: —
  IL-6, change from control: ↓T
  IL-10, change from control: —
  IL-12(p70), change from control: ↓*
  IL-13, change from control: ↓T
  IL-17a, change from control: —
  IL-18, change from control: —
  IP-10, change from control: —
  LIX, change from control: —
  Leptin, change from control: —
  MCP-1, change from control: —
  MIP-1a, change from control: ↑T
  MIP-2, change from control: —
  RANTES, change from control: —
  TNF-a, change from control: —
  VEGF, change from control: ↑*

## CC(=O)CC(=O)OCCC(C)OC(=O)CC(C)=O (stereo not drawn) [BD-AcAc2, R,S-1,3-butanediol acetoacetate diester]
[4]
  body weight / weight gain: normalizes body weight
[4]; [11]
  body weight / weight gain: normalizes weight
[1]; male Sprague Dawley rats, fed ad libitum 15 weeks
  food consumption / caloric intake: adjusted food consumption to regulate caloric intake to a large extent
Ube3a-deficient mice [5]; AS mice after 8 weeks on the diet, listed as ketone ester
  audiogenic seizure activity: decreased; also recorded: decreases seizure activity
Ube3a-deficient mice [5]; AS treated group after 8 weeks on the diet, 120-dB white noise
  audiogenic seizure frequency: 86%
Ube3a-deficient mice [5]
  latency to seize: increases latency to seize
Ube3a-deficient mice [5]; listed as ketone ester
  latency to seize: increased
Ube3a-deficient mice [6]
  novel object recognition memory: enhances novel object recognition memory
[7]; listed as KE
  blood ketones: elevated ketones
  blood glucose: decreased blood glucose
[7]; [11]
  blood ketones: increases blood ketone levels
  blood glucose: decreases blood glucose
Ube3a-deficient mice [8]
  behavioral seizure score (modified Racine's scale): significant decrease in behavioral seizure score
Ube3a-deficient mice [9]; 24 hours after training
  contextual fear conditioning (hippocampal-dependent learning): improves hippocampal-dependent learning
Ube3a-deficient mice [9]; training phase
  fear conditioning training phase (freezing): does not affect the fear conditioning training phase
Ube3a-deficient mice [10]
  rotarod performance: increases rotarod performance

## CC(=O)CC(=O)OCCC(C)OC(=O)CC(C)=O (racemic) [HKE]
[1]
  Approximate caloric intake compared to controls: ~−7 % kcal
[2]
  Alanine Aminotransferase (ALT): Ns
  Albumin: Ns
  Alkaline Phosphatase (ALP): Ns
  Blood Urea Nitrogen (BUN): Ns
  Calcium: Ns
  Chloride: Ns
  Cholesterol: Ns
  Creatinine: Ns
  Gamma Glutamyltransferase (GGT): Ns
  Globulin: Ns
  Glucose: Ns
  Phosphorous: Ns
  Potassium: Ns
  Sodium: Ns
  Total Bilirubin: Ns
  Total Protein: Ns
[3]
  Eotaxin, change from control: ↓**
  Fractalkine, change from control: ↑*
  G-CSF, change from control: ↓T
  GM-CSF, change from control: —
  GRO/KC, change from control: ↓T
  IFNy, change from control: ↓*
  IL-1a, change from control: ↓*
  IL-1b, change from control: ↓*
  IL-2, change from control: ↓T
  IL-4, change from control: —
  IL-5, change from control: ↓*
  IL-6, change from control: ↓*
  IL-10, change from control: ↓T
  IL-12(p70), change from control: ↓*
  IL-13, change from control: ↓**
  IL-17a, change from control: —
  IL-18, change from control: ↓T
  IP-10, change from control: ↓***
  LIX, change from control: ↓*
  Leptin, change from control: ↓*
  MCP-1, change from control: ↓T
  MIP-1a, change from control: —
  MIP-2, change from control: —
  RANTES, change from control: ↓**
  TNF-a, change from control: —
  VEGF, change from control: —
